Tests used:
TDP-43^Q331K mouse model [1] = assay: Example 4 catwalk gait analysis; type: in vivo; conditions: TDP-43^Q331K mice
Protocol: (§1) Following genotyping, transgenic females were block randomized into three different dosing groups: vehicle once daily, 2.5 mg/kg (6aS)-6-methyl-5,6,6a,7-tetrahydro-4H-dibenzo[de,g]quinoline-10,11-diol twice daily and 5 mg/kg (6aS)-6-methyl-5,6,6a,7-tetrahydro-4H-dibenzo[de,g]quinoline-10,11-diol once daily. The doses were selected based on results of previous internal studies. Animals were weighed daily before dosing and dosed subcutaneously at 10 ml/kg with a solution of 0.5 mg/ml (6aS)-6-methyl-5,6,6a,7-tetrahydro-4H-dibenzo[de,g]quinoline-10,11-diol for the 5 mg/kg dose and 0.25 mg/ml for the 2.5 mg/kg dose. Where animals were dosed twice a day, the doses were at least 6 hours apart and the dosing solution was freshly made for the second dose of the day.
(§2) The study was designed with two main cohorts of mice. One cohort was dosed from 25 days of age until 6 months of age and mice had behavioral testing throughout the study and consisted of 14 mice per group. The other satellite cohort was dosed from 25 days of age until 3 months of age, with no behavioral testing and consisted of 6 mice per group for target engagement and histological assessment. Behavioral tests that were carried out during the experiment were: accelerated rotarod test, gait analysis, and electrophysiology.
Gait analysis was carried out at 3 months and 6 months of age using the catwalk gait analysis system 7.1 (Noldus Information Technology B.V., Netherlands) and analyzed using Catwalk software 7.1. The software calculated many different gait parameters such as stride length, base of support (BOS) and swing time as well as step patterns and percentage of time spent on 2, 3 or 4 paws.
On the day of the test mice were placed on the glass runway and allowed to run freely back and forth. About 6 straight, consistent runs were recorded by the camera for each mouse. The 3 best runs with the closest total run time were selected for each mouse for analysis. For these three runs, the paw prints were labelled in successive frames using the software, which then analyzed multiple gait parameters for each of the runs. Using Excel, the average of all three runs per mouse was calculated, followed by the average per group for each of the gait parameters.
Gait analysis was performed using the catwalk system (Noldus) at both 3 and 6 months of age in 8 mice per group per timepoint. Traditionally in this model, the base of support increases with age, as shown in FIG. 9-13, represented the waddling or ‘swimming’ gait described in this strain.

NRF2 = assay: Example 1 in vivo pharmacodynamic study via subcutaneous dosing: expression of genes upregulated by NRF2 activation; design: species or system mouse; conditions: wildtype mice
Protocol: Wildtype mice (3 per group) were dosed subcutaneously at 0, 0.5, 1.5, 5 and 10 mg/kg (6aS)-6-methyl-5,6,6a,7-tetrahydro-4H-dibenzo[de,g]quinoline-10,11-diol hydrochloride for 7 days once daily. One animal in the 10 mg/kg dosing group was actually dosed 15 mg/kg on Day 1. To prepare the dosing solutions, (6aS)-6-methyl-5,6,6a,7-tetrahydro-4H-dibenzo[de,g]quinoline-10,11-diol was pre-weighed into bijous and stored in foil.

NQO1 = assay: Example 5 western blot protein analysis in induced astrocytes; type: cell-based; conditions: human iAstrocytes (CTR, C9orf72, sALS, SOD1 donors), 10 uM, 48 hours treatment
Source text: Induced NPCs were generated from adult human fibroblasts from patients who had been diagnosed with ALS and from age-matched healthy controls, using an approach reported previously (Kim et al PNAS, […]. 108(19), 7838-7843; Meyer et al., PNAS, 2014. 111(2), 829-832). Induced NPCs are differentiated into induced astrocytes (iAstrocytes) by culturing the progenitors in iAstrocyte medium for a total of 7 days with a medium change at day 3.
Cells were scraped from 10 cm dishes and cell pellets were lysed in ice cold IP lysis buffer (150 mM NaCl, 50 mM HEPES, 1 mM EDTA, 1 mM DTT, 0.5% (v/v) Triton X-100, protease inhibitor cocktail, pH 8.0) for 15 minutes and further homogenized using a 25-gauge needle and syringe. Protein samples were separated by SDS-Polyacrylamide Gel Electrophoresis and then semi-dry transferred onto nitrocellulose membranes. Membranes were blotted with Anti-NQO1—1:1000 (5% milk/TBST); rabbit; abcam; ab34173 at 4° C. overnight and anti-Beta-actin—1:5,000 (5% milk/TBST); mouse; abcam; ab6276 clone AC-15 at 4° C. overnight.

TDP-43^Q331K mouse model [2] = assay: Example 4 accelerating rotarod test; type: in vivo; conditions: TDP-43^Q331K mice, 5 mg/kg once daily s.c., one time point (19 weeks of age)
Protocol: as §1
The study was designed with two main cohorts of mice. One cohort was dosed from 25 days of age until 6 months of age and mice had behavioral testing throughout the study and consisted of 14 mice per group. […]
Mice were tested on the accelerating rotarod (Jones & Roberts for mice, model 7650) once a week from 40 days of age until the end of the study. […] Mice are placed on the rotarod and the time taken to fall from the rotarod (latency to fall) is recorded. For each day of testing, each mouse was tested twice on the rotarod with a small rest in between trials and the best result from the two trials is recorded. […]

TDP-43^Q331K mouse model [3] = assay: Example 4 electrophysiology: repetitive stimulation; type: in vivo; conditions: TDP-43^Q331K mice
Protocol: as §1, §2
Electrophysiological assessment of compound action muscle potential (CMAP) and repetitive stimulation was carried out at 6 weeks, 3 months and 6 months of age.
Mice were anesthetized using gaseous isoflurane and then maintained under gaseous anesthesia using a nose cone for the duration of the experiment. Body temperature was maintained with a heat pad. The fur from the lower left limb was removed using an electric razor followed by hair removal cream in order to allow skin contact of the ring electrodes. Ring electrodes were covered in electrical paste and were placed around the ankle and thigh area of the shaved limb. […]
Repetitive stimulation was carried out after the CMAP was calculated. […]

[4] = 5 mg/kg s.c. once daily 7 days, 24 hours post final dose, compared to Gapdh
[5] = 10 mg/kg s.c. once daily 7 days, 24 hours post final dose, compared to Actb

CN1CCc2cccc3c2[C@@H]1Cc1ccc(O)c(O)c1-3 [(6aS)-6-methyl-5,6,6a,7-tetrahydro-4H-dibenzo[de,g]quinoline-10,11-diol] was tested, and the “gait parameters (time spent on diagonal paws, on three or four paws) from 3 to 6 months” value (TDP-43^Q331K mouse model [1]; 2.5 mg/kg dosing group) was “relatively stable”, the “change in percentage of time spent on 3 paws between 3 months and 6 months of age, compared to vehicle” value (TDP-43^Q331K mouse model [1]; 2.5 mg/kg twice daily) was “significant decrease” and the “change in percentage of time spent on diagonal paws between 3 months and 6 months of age” value (TDP-43^Q331K mouse model [1]; 2.5 mg/kg twice daily, significant difference to vehicle, which has a decrease) was “slight increase”. For the same compound, the “gait parameters (time spent on diagonal paws, on three or four paws) from 3 to 6 months” value (TDP-43^Q331K mouse model [1]; 5 mg/kg dosing group) was “relatively stable”, the “effect on swimming gait (base of support increasing with age)” value (TDP-43^Q331K mouse model [1]; 3 and 6 months of age) was “did not limit this swimming gait” and the Gclm gene induction (NRF2; 5 mg/kg s.c. once daily 7 days, 6 hours post final dose, compared to Gapdh) was 1.5 fold. It also gave a Gclm gene induction (NRF2; [4]) of 1.5 fold, a Nqo1 gene induction (NRF2; [4]) of 1.3 fold and a Gclm gene induction (NRF2; 10 mg/kg s.c. once daily 7 days, 6 hours post final dose, compared to Actb) of 1.4 fold. The Gclm gene induction (NRF2; [5]) was 1.2 fold, the NRF2-responsive gene induction (NRF2; [5]) was 1.4 fold and the “NQO1 protein (western blot quantification) compared to DMSO treatment” value (NQO1) was “significant increase”. For the same compound, the “rotarod performance (latency to fall) compared to vehicle dosed animals” value (TDP-43^Q331K mouse model [2]) was “significant increase”, the “repetitive stimulation, between the dose groups” value (TDP-43^Q331K mouse model [3]; 3 months) was “no significant difference” and the “repetitive stimulation response compared to the vehicle dosing group” value (TDP-43^Q331K mouse model [3]; 6 months of age, 2.5 mg/kg dose group, stimulation numbers 5 and 7) was “significant increase”. For the same compound, the “repetitive stimulation response (percentage of the first stimulation) compared to vehicle” value (TDP-43^Q331K mouse model [3]; 6 weeks of age, 2.5 mg/kg twice daily, final stimulation, significant difference) was “larger decrease in response”.

From patent publication US20220265635A1, “TREATMENT OF NEUROLOGICAL DISEASE” (Aclipse One Inc., priority 2018, published 2022)
